# Laboratory results reported in patent US9453014B2, “Cyclic amide derivatives as inhibitors of 11-β-hydroxysteroid dehydrogenase and uses thereof” (CONNEXIOS LIFE SCIENCES PVT. LTD., priority 2011, dated 2016).
# Target: T1, human full length HSD11 β 1 (Homo sapiens, UniProt P28845)
# T1 construct: transient expression of human full length HSD11 β 1 expression vector; host or cells: CHO cells (transient transfection)
# Experiment: In Vitro HSD11β1 Inhibition Assay
# Format: cell-based
# Settings: 11βHSD1 (IC50)
# Method: In Vitro HSD11β1 Inhibition Assay:
# CHO cells were maintained in Dulbecco's modified Eagle's medium/nutrient mixture F-12 containing 5% fetal bovine serum (v/v) and 2 mM glutamine. Cells were cultured at 37° C. with 5% CO2. For transient expression of human full length HSD11 β 1 expression vector (OriGene Technologies), cells were seeded at a density of 2×10^5 cells/well in a 6-well plate. Transfection was done using Turbofectin8 reagent (OriGene Technologies), according to the protocol provided with the reagent. After 24 hours post-transfection, cells were trypsinized and pooled together before they were re-seeding to 96-well plate at a density of 40000 cells/well. 24 hours after re-seeding, cells were incubated with 200 nM cortisone+500 uM NADPH (or along with small molecule inhibitors) overnight. The enzymatic activity or inhibition of enzyme activity was measured by estimating the conversion of cortisone to cortisol by LC/MS-MS method. The IC50 in nM was calculated from an 8 point log scale of concentration versus inhibition.
# T1 sequence (P28845 whole entry): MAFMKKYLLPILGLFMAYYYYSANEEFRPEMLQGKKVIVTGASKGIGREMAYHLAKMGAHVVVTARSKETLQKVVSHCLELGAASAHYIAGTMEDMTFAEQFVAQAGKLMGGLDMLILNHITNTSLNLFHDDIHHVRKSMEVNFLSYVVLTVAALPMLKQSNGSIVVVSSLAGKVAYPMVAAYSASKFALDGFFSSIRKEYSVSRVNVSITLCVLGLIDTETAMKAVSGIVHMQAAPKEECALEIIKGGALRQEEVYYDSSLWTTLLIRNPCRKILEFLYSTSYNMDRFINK
row,Structure (SMILES),IC50
1,"Cc1cccc2[nH]cc(C(=O)CC(=O)N3CCCC4CCCCC43)c12 (stereo not shown) [Compound 30, 1-(4-methyl-1H-indol-3-yl)-3-(octahydroquinolin-1(2H)-yl)propane-1,3-dione]",> 250 nM

# Same assay, conditions: CHO cells transiently expressing human HSD11β1; 200 nM cortisone+500 uM NADPH overnight; cortisone to cortisol by LC/MS-MS; read-out: 11βHSD1 (IC50)
row,Structure (SMILES),IC50
1,"Cc1[nH]c2ccccc2c1CCC(=O)N1CCCC2CCCCC21 (stereo not shown) [Compound 17, 3-(2-methyl-1H-indol-3-yl)-1-(octahydroquinolin-1(2H)-yl)propan-1-one]",< 100 nM
2,"O=C(CCn1ccc2ccccc21)N1CCCC2CCCCC21 (stereo not shown) [Compound 18, 3-(1H-indol-1-yl)-1-(octahydroquinolin-1(2H)-yl)propan-1-one]",> 250 nM
3,"O=C(CC(=O)N1CCCC2CCCCC21)c1c[nH]c2ccc(Cl)cc12 (stereo not shown) [Compound 19, 1-(5-chloro-1H-indol-3-yl)-3-(octahydroquinolin-1(2H)-yl)propane-1,3-dione]",> 250 nM
4,"Cc1cccc2[nH]cc(CCC(=O)N3CCCC4CCCCC43)c12 (stereo not shown) [Compound 20, 3-(4-methyl-1H-indol-3-yl)-1-(octahydroquinolin-1(2H)-yl)propan-1-one]",< 100 nM
5,"O=C(CCc1c[nH]c2ccccc12)N1CCC2CCCCC2C1 (stereo not shown) [Compound 21, 3-(1H-indol-3-yl)-1-(octahydroisoquinolin-2(1H)-yl)propan-1-one]",> 250 nM
6,"CC(CC(=O)N1CCOC2CCCCC21)c1c[nH]c2ncccc12 (stereo not shown) [Compound 22, 1-(octahydro-4H-1,4-benzoxazin-4-yl)-3-(1H-pyrrolo[2,3-b]pyridin-3-yl)butan-1-one]",> 250 nM
7,"CC(C)(C)NC(=O)C1CC2CCCCC2CN1C(=O)CCc1c[nH]c2ccccc12 (stereo not shown) [Compound 23, N-tert-butyl-2-[3-(1H-indol-3-yl)propanoyl]decahydroisoquinoline-3-carboxamide]",> 250 nM
8,"Cn1cc(CCC(=O)N2CCCC3CCCCC32)c2cc(O)ccc21 (stereo not shown) [Compound 24, 3-(5-hydroxy-1-methyl-1H-indol-3-yl)-1-(octahydroquinolin-1(2H)-yl)propan-1-one]",> 250 nM
9,"CC(Oc1c[nH]c2ccccc12)C(=O)N1CCCC2CCCCC21 (stereo not shown) [Compound 25, 2-(1H-indol-3-yloxy)-1-(octahydroquinolin-1(2H)-yl)propan-1-one]",> 250 nM
10,"O=C1CCN(C(=O)CCc2c[nH]c3ccccc23)C2CCCCC12 (stereo not shown) [Compound 26, 1-[3-(1H-indol-3-yl)propanoyl]octahydroquinolin-4(1H)-one]",> 250 nM
11,"Cc1cccc2c1c(CCC(=O)N1CCCC3CCCCC31)cn2C (stereo not shown) [Compound 27, 3-(1,4-dimethyl-1H-indol-3-yl)-1-(octahydroquinolin-1(2H)-yl)propan-1-one]",< 100 nM
12,"Cc1cccc2c1c(CCC(=O)N1CCCC3CCCCC31)cn2C1CC1 (stereo not shown) [Compound 28, 3-(1-cyclopropyl-4-methyl-1H-indol-3-yl)-1-(octahydroquinolin-1(2H) -yl)propan-1-one]",100 to 150 nM
13,"N#C/C(=C\c1c[nH]c2ccccc12)C(=O)N1CCCC2CCCCC21 (stereo not shown) [Compound 31, (2E)-3-(1H-indol-3-yl)-2-(octahydroquinolin-1(2H)-ylcarbonyl)prop-2-enenitrile]",> 250 nM
14,"Cc1cccc2[nH]cc(CCC(=O)N3CCC(=O)C4CCCCC43)c12 (stereo not shown) [Compound 32, 1-[3-(4-methyl-1H-indol-3-yl)propanoyl]octahydroquinolin-4(1H)-one]",> 250 nM
15,"CCn1cc(CCC(=O)N2CCCC3CCCCC32)c2c(C)cccc21 (stereo not shown) [Compound 33, 3-(1-ethyl-4-methyl-1H-indol-3-yl)-1-(octahydroquinolin-1(2H)-yl)propan-1-one]",> 250 nM
16,"CC1(O)CCN(C(=O)CCc2c[nH]c3ccccc23)C2CCCCC21 (stereo not shown) [Compound 34, 1-(4-hydroxy-4-methyloctahydroquinolin-1(2H)-yl)-3-(1H-indol-3-yl)propan-1-one]",> 250 nM
17,"Cc1cccc2[nH]cc(CCC(=O)N3C(C)CCC4CCCCC43)c12 (stereo not shown) [Compound 35, 3-(4-methyl-1H-indol-3-yl)-1-(2-methyloctahydroquinolin-1(2H)-yl)propan-1-one]",< 100 nM
18,CO/N=C1/CCN(C(=O)CCc2c[nH]c3ccccc23)C2CCCCC12 (stereo not shown) [Compound 36],> 250 nM
19,"CC1CC2CCCCC2N(C(=O)CCc2c[nH]c3ccccc23)C1 (stereo not shown) [Compound 37, 3-(1H-indol-3-yl)-1-(3-methyloctahydroquinolin-1(2H)-yl)propan-1-one]",> 250 nM
20,"CC1CCC2CCCCC2N1C(=O)CCc1c[nH]c2ccccc12 (stereo not shown) [Compound 38, 3-(1H-indol-3-yl)-1-(2-methyloctahydroquinolin-1(2H)-yl)propan-1-one]",150 to 200 nM
21,"O=C(CCc1c[nH]c2cc(F)ccc12)N1CCCC2CCCCC21 (stereo not shown) [Compound 39, 3-(6-fluoro-1H-indol-3-yl)-1-(octahydroquinolin-1(2H)-yl)propan-1-one]",> 250 nM

row,Structure (SMILES),IC50
1,"CC1CCC2CCCCC2N1C(=O)CCc1c[nH]c2cc(F)ccc12 (stereo not shown) [Compound 40, 3-(6-fluoro-1H-indol-3-yl)-1-(2-methyloctahydroquinolin-1(2H)-yl)propan-1-one]",> 250 nM
2,"O=C(CCc1c[nH]c2ccccc12)N1CCC2CCCCC21 (stereo not shown) [Compound 41, 3-(1H-indol-3-yl)-1-(octahydro-1H-Indol-1-yl)propan-1-one]",100 to 150 nM
3,"O=C(CCc1c[nH]c2ccccc12)N1CC2CCCCC2C1 (stereo not shown) [Compound 42, 3-(1H-indol-3-yl)-1-(octahydro-2H-isoindol-2-yl)propan-1-one]",> 250 nM
4,"O=C1CCN(C(=O)CCc2c[nH]c3cc(F)ccc23)C2CCCCC12 (stereo not shown) [Compound 43, 1-[3-(6-fluoro-1H-indol-3-yl)propanoyl]octahydroquinolin-4(1H)-one]",> 250 nM
5,"O=C(CCc1c[nH]c2cccc(F)c12)N1CCCC2CCCCC21 (stereo not shown) [Compound 44, 3-(4-fluoro-1H-indol-3-yl)-1-(octahydroquinolin-1(2H)-yl)propan-1-one]",< 100 nM
6,CC1CC2CCCCC2N1C(=O)CCc1c[nH]c2ccccc12 (stereo not shown) [Compound 45],> 250 nM
7,"O=C(O)Cn1cc(CCC(=O)N2CCCC3CCCCC32)c2ccccc21 (stereo not shown) [Compound 46, {3-[3-(octahydroquinolin-1(2H)-yl)-3-oxopropyl]-1H-indol-1-yl}acetic acid]",> 250 nM
8,"Cn1cc(CCC(=O)N2CCCC3CCCCC32)c2c(F)cccc21 (stereo not shown) [Compound 47, 3-(4-fluoro-1-methyl-1H-Indol-3-yl)-1-(octahydroquinolin-1(2H)-yl)propan-1-one]",< 100 nM
9,"O=C(CCc1c[nH]c2ccccc12)N1CCCC2=C1CCCC2 [Compound 48, 1-(3,4,5,6,7,8-hexahydroquinolin-1(2H)-yl)-3-(1H-indol-3-yl)propan-1-one]",> 250 nM
10,"COC(=O)C1CCN(C(=O)CCc2c[nH]c3ccccc23)C2CCCCC12 (stereo not shown) [Compound 49, methyl 1-[3-(1H-indol-3-yl)propanoyl]decahydroquinoline-4-carboxylate]",> 250 nM
11,"O=C(O)C1CCN(C(=O)CCc2c[nH]c3ccccc23)C2CCCCC12 (stereo not shown) [Compound 50, 1-[3-(1H-indol-3-yl)propanoyl]decahydroquinoline-4-carboxylic acid]",> 250 nM
12,"O=C(CCc1cn(S(=O)(=O)c2ccccc2)c2ccccc12)N1CCCC2CCCCC21 (stereo not shown) [Compound 51, 1-(octahydroquinolin-1(2H)-yl)-3-[1-(phenylsulfonyl)-1H-indol-3-yl]propan-1-one]",> 250 nM
13,"O=C(CCc1c[nH]c2ccccc12)N1CCCCC2CCCCC21 (stereo not shown) [Compound 54, 1-(decahydro-1H-1-benzazepin-1-yl)-3-(1H-indol-3-yl)propan-1-one]",> 250 nM
14,"O=C(CS(=O)(=O)c1c[nH]c2ccccc12)N1CCCC2CCCCC21 (stereo not shown) [Compound 57, 2-(1H-indol-3-ylsulfonyl)-1-(octahydroquinolin-1(2H)-yl)ethanone]",> 250 nM
15,"Cn1cc(C(C)(C)CC(=O)N2CCCC3(C)CCCCC23)c2ccccc21 (stereo not shown) [Compound 59, 3-methyl-3-(1-methyl-1H-indol-3-yl)-1-(4a-methyloctahydroquinolin-1 (2H)-yl)butan-1-one]",150 to 200 nM
16,"Cc1cccc2c1c(CCC(=O)N1CCOC3CCCCC31)cn2C (stereo not shown) [Compound 60, 3-(1,4-dimethyl-1H-indol-3-yl)-1-(octahydro-4H-1,4-benzoxazin-4-yl)propan-1-one]",< 100 nM
17,"O=C(CCc1c[nH]c2ccccc12)N1CCO[C@@H]2CCCCC21 (stereo partly drawn) [Compound 61, 3-(1H-indol-3-yl)-1-[(trans-4a,8a)-octahydro-4H-1,4-benzoxazin-4-yl]propan-1-one]",> 250 nM
18,"Cc1cccc2[nH]cc(CCC(=O)N3CCOC4CCCCC43)c12 (stereo not shown) [Compound 64, 3-(4-methyl-1H-indol-3-yl)-1-(octahydro-4H-1,4-benzoxazin-4-yl)propan-1-one]",150 to 200 nM
19,"O=C(CCc1c[nH]c2ccccc12)N1CCOC2CCCCC21 (stereo not shown) [Compound 67, 3-(1H-indol-3-yl)-1-(octahydro-4H-1,4-benzoxazin-4-yl)propan-1-one]",> 250 nM
20,"Cc1cccc2[nH]cc(CCC(=O)N3CC(C)(C)OC4CCCCC43)c12 (stereo not shown) [Compound 68, 1-(2,2-dimethyloctahydro-4H-1,4-benzoxazin-4-yl)-3-(4-methyl-1H-indol-3-yl)propan-1-one]",> 250 nM
21,"Cc1cccc2c1c(CCC(=O)N1CC(C)OC3CCCCC31)cn2C (stereo not shown) [Compound 69, 3-(1,4-dimethyl-1H-indol-3-yl)-1-(2-methyloctahydro-4H-1,4-benzoxazin-4-yl)propan-1-one]",> 250 nM
